Experimental data: patent publication US20070218475A1, “Efficient drug screening for protein targets” (priority 2005, published 2007)

Molecular target: T1, Smo protein from Drosophila (Drosophila melanogaster, UniProt P91682)
T1 construct: expressed in transfected cells; host or cells: Cos-1
T1 sequence (P91682 32-1036): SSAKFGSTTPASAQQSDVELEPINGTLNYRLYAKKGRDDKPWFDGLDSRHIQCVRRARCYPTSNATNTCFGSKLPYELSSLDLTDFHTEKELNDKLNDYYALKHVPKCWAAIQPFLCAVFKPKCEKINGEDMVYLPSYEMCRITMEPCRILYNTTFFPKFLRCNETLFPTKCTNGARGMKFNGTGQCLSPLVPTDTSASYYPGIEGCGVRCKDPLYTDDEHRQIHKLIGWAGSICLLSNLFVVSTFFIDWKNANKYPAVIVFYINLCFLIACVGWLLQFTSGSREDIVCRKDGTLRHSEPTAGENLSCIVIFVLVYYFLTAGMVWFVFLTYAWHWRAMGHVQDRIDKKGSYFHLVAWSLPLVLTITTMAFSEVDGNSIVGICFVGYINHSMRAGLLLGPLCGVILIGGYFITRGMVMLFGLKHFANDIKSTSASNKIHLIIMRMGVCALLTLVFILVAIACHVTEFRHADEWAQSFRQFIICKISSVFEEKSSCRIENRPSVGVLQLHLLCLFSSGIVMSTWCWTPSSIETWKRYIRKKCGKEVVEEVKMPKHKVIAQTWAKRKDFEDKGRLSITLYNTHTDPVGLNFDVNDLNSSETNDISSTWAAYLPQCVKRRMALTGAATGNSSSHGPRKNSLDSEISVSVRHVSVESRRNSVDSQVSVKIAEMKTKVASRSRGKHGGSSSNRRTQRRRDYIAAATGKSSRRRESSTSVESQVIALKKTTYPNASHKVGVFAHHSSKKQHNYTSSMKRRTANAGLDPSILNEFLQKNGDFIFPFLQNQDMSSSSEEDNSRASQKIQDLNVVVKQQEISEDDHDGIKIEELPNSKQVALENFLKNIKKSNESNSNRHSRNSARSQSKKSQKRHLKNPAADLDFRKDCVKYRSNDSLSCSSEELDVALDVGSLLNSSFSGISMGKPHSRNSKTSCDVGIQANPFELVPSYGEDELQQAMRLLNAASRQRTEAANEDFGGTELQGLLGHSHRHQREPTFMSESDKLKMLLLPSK
Assay: Fluorescence (BODIPY-cyclopamine) binding assay, Cos-1 cells expressing Drosophila Smo
Details: flow cytometry
Procedure: Fluorescence binding assay: Cos-1 cells were transfected in 6-well plates with the described expression vectors (1 μg/well), and after two days, incubated in DMEM containing 10% fetal bovine serum, 5 nM BODIPY-cyclopamine, and various concentrations of the indicated competitors for 4-6 h at 37° C. For flow cytometry experiments, the cells were then trypsinized, collected by centrifugation, resuspended in phenol red-free DMEM containing 0.5% bovine calf serum, and analyzed for green fluorescence (FACScan, Beckton Dickinson). A fluorescence intensity range that excludes non-transfected cells was then selected for quantification of specific BODIPY-cyclopamine binding (see brackets in FIGS. 2C, 2D, and 3A). Curve fitting analysis was performed with Kaleidograph (Synergy Software).

For `CC1=C2CC3C(CC=C4C[C@@H](O)CCC43C)C2CCC12O[C@@H]1CC(C)CN(CCNC(=O)CCCCCNC(=O)CCC3=[N+]4C(=Cc5c(C)cc(C)n5[B-]4(F)F)C=C3)C1C2C` (stereo partly shown) [BODIPY-cyclopamine], the “binding to cells expressing Drosophila Smo” value was “did not bind”.
